Assay results from patent US20050208549A1, “Testing endosymbiont cellular organelles and compounds identifiable therewith” (priority 2000, published 2005).

Experiments:
[1] = system: peripheral blood mononuclear cells (PBMCs); assay: NASBA ratio of mitochondrial RNA to chromosome-encoded RNA in cultured PBMCs; format: cell-based, human (healthy blood donor); settings: culture period of five days, 6 μM and 60 μM
Protocol: (§1) In Table 1, the primers and probes used in the examples are summarized. Standard NASBA nucleic acid amplification reactions were performed in a 20 μl reaction volume and contained: 40 mM Tris-pH 8.5, 70 mM KCl, 12 mM MgCl2, 5 mM dithiothreitol, 1 mM dNTPs (each), 2 mM rNTPs (each), 0.2 μM primer (each), 0.05 μM molecular beacon, 375 mM sorbitol, 0.105 μg/μl bovine serum albumin, 6.4 units AMV RT, 32 units T7 RNA polymerase, 0.08 units RNAse H and input nucleic acid. The complete mixture, except the enzymes, sorbitol and/or bovine serum albumin was, prior to adding the enzyme mixture, heated to 65° C. for two minutes in order to denature any secondary structure in the RNA and to allow the primers to anneal. After cooling the mixture to 41° C., the enzymes were added. The amplification took place at 41° C. for 90 minutes in a fluorimeter (CytoFluor 2000) and the fluorescent signal was measured every minute (using the filter set 530/25 nm and 485/30 nm). For amplification of DNA target sequences, the 65° C. denaturation step was replaced with a 95° C. denaturation step for two to five minutes.
(§2) To achieve quantification, a dilution series of target sequences for a particular primer set was amplified and the time points at which the reactions became positive (the time to positivity, TTP) were plotted against the input amounts of nucleic acid. This way a calibration curve was created that could be used to read TTP values of reactions with unknown amounts of input and deduce the input amount.
Cells (fibroblasts and PBMCs) were cultured under standard conditions in standard media known to persons skilled in the art with the addition of drugs or putative toxic or stimulating compounds as defined in the examples. […] A small aliquot of the isolated nucleic acid was analyzed on an agarose gel and the remainder stored at −80° C. until further analysis. […]

[2] = Peripheral atrophy, Lipodystrophy; d4T > others; cited from earlier work
[3] = system: Fibroblast cells; assay: NASBA ratio of mitochondrial DNA to chromosomal DNA in cultured fibroblast cells; format: cell-based; settings: culture period of four weeks, antiviral drugs at 3 μM and 30 μM
Protocol: as §1, with “For amplification of DNA target sequences, the 65° C. denaturation step was replaced with a 95° C. denaturation step for two to five minutes.” left out
as §2, with “amount. […]” for “amount.”

[4] = system: Fibroblast cells; assay: NASBA ratio of mitochondrial RNA to chromosome-encoded RNA in cultured fibroblast cells; format: cell-based; settings: culture period of four weeks, antiviral drugs at 3 μM and 30 μM
Protocol: as §1, with “For amplification of DNA target sequences, the 65° C. denaturation step was replaced with a 95° C. denaturation step for two to five minutes.” left out
as §2, with “amount. […]” for “amount.”

[5] = system: Fibroblast cells; assay: NASBA ratio of mitochondrial RNA to chromosomal DNA in cultured fibroblast cells; format: cell-based; settings: culture period of four weeks, antiviral drugs at 3 μM and 30 μM
Protocol: as §1, with “For amplification of DNA target sequences, the 65° C. denaturation step was replaced with a 95° C. denaturation step for two to five minutes.” left out
as §2, with “amount. […]” for “amount.”

[6] = system: Fibroblast cells; assay: NASBA ratio of mitochondrial RNA to mitochondrial DNA in cultured fibroblast cells; format: cell-based; settings: culture period of four weeks, antiviral drugs at 3 μM and 30 μM
Protocol: as §1, with “For amplification of DNA target sequences, the 65° C. denaturation step was replaced with a 95° C. denaturation step for two to five minutes.” left out
as §2, with “amount. […]” for “amount.”

[7] = system: Fibroblast cells; assay: NASBA ratio of chromosome-encoded RNA to chromosomal DNA in cultured fibroblast cells; format: cell-based; settings: culture period of four weeks, antiviral drugs at 3 μM and 30 μM
Protocol: as §1, with “For amplification of DNA target sequences, the 65° C. denaturation step was replaced with a 95° C. denaturation step for two to five minutes.” left out
as §2, with “amount. […]” for “amount.”

| SMILES | change in ratio of mitochondrial RNA to chromosome-encoded RNA [1] | Rate (%) of mitochondrial toxicity, affected organ Fat [2] [%] | change in mitochondrial DNA to chromosomal DNA ratio [3] | change in mitochondrial RNA to chromosome-encoded RNA ratio [4] | change in mitochondrial RNA to chromosomal DNA ratio [5] | change in mitochondrial RNA to mitochondrial DNA ratio [6] | change in ratio of chromosome-encoded RNA and chromosomal DNA [7] |
| --- | --- | --- | --- | --- | --- | --- | --- |
| Cc1cn([C@H]2C=C[C@@H](CO)O2)c(=O)[nH]c1=O [D4T] | no measurable change | 50 | – | – | – | – | – |
| CC[n+]1c(-c2ccccc2)c2cc(N)ccc2c2ccc(N)cc21 [ethidium bromide] | – | – | decline in mitochondrial DNA content | decline in mitochondrial RNA content | decline in mitochondrial RNA content | decline in mitochondrial RNA and DNA content | no measurable change |
